Assay results reported in patent US20190091494A1, “PEPTIDES FOR HAIR GROWTH” (Clinical Stem Cells Pty Ltd, priority 2016, published 2019).
Several values for one entry are separate records, joined by “and”; a condition that tells them apart may be missing. Equal entries are not always repeated. Entries after “also recorded” stand apart in the source; their conditions may differ. Where no end group is shown, it is not given here. [ ]: non-standard residue; d: D form. pGlu = O=C1CC[C@@H](C(=O)O)N1

Legend:
[1] = tested on: active hair follicles; details: topically applied to rodent skin; cited from earlier work
[2] = tested on: adult subjects with a diagnosis of AGA; experiment: Further clinical trial, numbered visual analog scale (VAS) global hair assessment; type: in vivo, human; details: for VAS after treatment: scale 0-10, one value per subject 1-18, 0.0005% spray twice daily, 4-10 months
Description: (§1) Eighteen consecutive adult subjects were recruited, 17 males and 1 female, age range 35-90 years (mean 55.4, SD 13.3) with a diagnosis of AGA, Norwood classification 2-7, and hair loss duration range of 3-40 years (mean 15.8, SD 9.6). The trial duration for each subject ranged from 4-10 months. The test compound ZT was synthesized by standard Fmoc peptide protocols and administered in water based topical spray to the scalp. Baseline and after treatment images for hair growth were graded by two blinded assessors using two validated scales: 1. numerical visual analog scale (VAS) for global assessment 2. hair growth index (HGI) of images under higher magnification for percentage changes of vellus, intermediate and terminal hair.
(§2) Male and female adult subjects with a diagnosis of AGA were invited to participate in the study. Each subject provided written informed consent except the subject who gave verbal consent as they were unable to provide written consent due to arthritis of the hand. The study was conducted in compliance with the Declaration of Helsinki, International Conference on Harmonization Good Clinical Practice guidelines. Eighteen consecutive adult subjects were recruited (17 males and 1 […]) with an age range 35-90 years (mean 55.4, SD 13.3) with a diagnosis of AGA Norwood-Hamilton classification 2-7, and with a hair loss history ranging from 3-40 years (mean 15.8, SD 9.6). Entry time points of the volunteers occurred over 6 months with the trial completed at the same endpoint resulting in duration of treatment for subjects in the trial ranging from 4-10 months.
(§3) The product given to subjects was a 100 ml spray bottle containing 0.0005% ZT as the active test agent. Subjects were instructed to spray 1-2 ml of solution, twice daily, and rub into the scalp. The spray bottle solution was to be kept away from direct sunlight and heat. Subjects were resupplied with fresh solutions every 6-8 weeks during the trial.
(§4) Images were captured on a Samsung Galaxy Note 4 phone in high resolution (16 MB image) with flash, F 2.2 and focal length 31 mm. For assessment, baseline and after treatment images were de-identified, paired and randomly allocated with respect to left/right sides. Images were presented for analysis to assessors in Powerpoint format files on a 55 inch high resolution television screen. All images and original assessor scorecards were archived in PDF format for external reviewer confirmation.
1. Numbered visual analog scale (VAS) where the assessor gives a value between 0-10 of the image (0=total absence of hair, 10=full abundant hair) (Price, 2008).
(§5) Assessment was graded by two independent assessors in a single blind manner. Assessors underwent three training sessions over two weeks prior to the final evaluation.

[3] = tested on: adult subjects with a diagnosis of AGA; experiment: Further clinical trial, safety: side effects and drug interaction; type: in vivo, human; details: listed as ZT
Description: as §1, §2, §3

[4] = tested on: adult subjects with a diagnosis of AGA; experiment: Further clinical trial, Hair Growth Index (HGI) of magnified images; type: in vivo, human; details: for HGI adjusted score A (absent) after: raw % multiplied by 0; for HGI raw score % A (absent) after / HGI raw score % I (intermediate) after / HGI raw score % T (terminal) after / HGI raw score % V (vellus) after: per subject, after trial completion
Description: as §1, §2, §3, §4
2. Hair Growth Index (HGI) that is a more in-depth scale of analysis where higher magnification of images can identify the four types of hair regrowth that are designated as absent, vellus, intermediate or terminal (Bernado, 2003). For each image these four growth stages are given percentage values that added together give a raw score total of 100%. Each percentage value for absent, vellus, intermediate, and terminal are multiplied by 0,1,2,3 respectively to yield a final adjusted score ranging from a possible minimum score of 0 (total absence of hair) to a maximum score of 300 (full terminal hair). Scores were pooled for paired t-test, and P<0.05 was established for significance.
as §5

[5] = tested on: scalp of subject #17; experiment: Fluorescence spectroscopy procedure of the scalp; type: in vivo, human; details: subject #17 (30 year hair loss); 6 pre-existing terminal hairs under visible white LED light
Description: To confirm this effect subject #17 (30 year hair loss) underwent a fluorescence spectroscopy procedure of the scalp. […] Supporting evidence was seen when comparing the assessor pooled responses of ‘total absent hair’ where 65% (13/20) of subjects improved.

[6] = tested on: inactive hair follicles; experiment: Inventor's observation: activation of inactive hair follicles; details: in vivo
[7] = tested on: hair follicles; experiment: Clinical trial using topical zinc thymulin: number of active hair follicles in a set scalp area; type: in vivo, Human
Protocol: The area near the marker affected by hair loss was photographed using a Samsung Galaxy Note 4 camera with settings F2.2, focal length 31 mm, LED flash and the number of active hair follicles in a set area were quantified.
The aqueous spray formulation prepared in Example 2 was administered topically to the scalp of the trial subjects twice daily to the hair loss region(s) of the scalp. The formulation used for subjects 1, 2 and 3 contained 0.00005% LKKTETQ peptide (molecular weight 846.48).
At 16 weeks for subject 1 and 12 weeks for subjects 2, 3 and 4, the number of active hair follicles in the set area was quantified again. Multiple set areas of hair loss were evaluated for trial subjects 1, 2 and 3. These areas are designated “a” and “b” in Table 2 and Table 3.

[8] = tested on: hair follicles; details: active hair follicles that entered catagen; US 2011/0281802; cited from earlier work
[9] = all 7 subject areas, 12-16 weeks
[10] = subject 4, 12 weeks, spray without LKKTETQ peptide

LKKTETQ [leucine-leucine-lysine-threonine-glutamic acid-threonine-glutamine, added at 0.00005% (amidated & acetylated) to the spray of subjects 1-3]
hair growth [1]: promotes hair growth from existing active hair follicles

zinc thymulin: zinc complex of amidated and acetylated thymulin H3CC(O)-Pyr-Glu-Ala-Lys-Ser-Gln-Gly-Gly-Ser-Asn-NH2; tested as 0.0005% water based topical spray (Ac-[pGlu]AKSQGGSN-NH2; also: zinc complex)
VAS hair assessment improvement ([2]; 11 subjects who completed at least 6 months of treatment, listed as ZT): significant growth | VAS after treatment ([2]; Assessor #1): 6 (3×) and 8 (10×) and 9 (3×) and 7 (2×) | VAS after treatment ([2]; Assessor #2): 6 (5×) and 8 (5×) and 7 (3×) and 4 and 9 (2×) and 5 (2×) | VAS hair growth ([2]; total group (18 subjects) at the end of the trial): no significant growth | adverse systemic effects or local side effects (redness, scalp irritation) ([3]; 18 subjects, topical 0.0005% spray, total of 3,300 treatment days): no adverse systemic effects or local side effects of redness or scalp irritation; also recorded: no redness, scalp irritation or deterioration of hair color, quality or quantity | side effects reported in the entire study ([3]; 18 test subjects, total of 111 months (~3,300 days), attributed to a non-active constituent (citric acid buffer)): Only one side effect; also recorded: only one side effect from a non-active constituent | drug interaction with ZT ([3]; three subjects concurrently using minoxidil (N=2) and minoxidil/finasteride (N=1)): did not report any drug interaction; also recorded: no observable drug interaction | assessor pooled responses of 'total absent hair' improved ([4]; 13/20 pooled responses): 65% | HGI adjusted score A (absent) after ([4]; Assessor #1): 0 | HGI adjusted score A (absent) after ([4]; Assessor #2): 0 | HGI adjusted score I (intermediate) after ([4]; Assessor #2, raw % multiplied by 2, listed as ZT): 60 and 40 | average increase of intermediate type hairs ([4]; HGI assessment, at 6 months): 23% | average increase of vellus type hairs ([4]; HGI assessment, at 6 months): 32% | number of newly observed intermediate hairs in previous absent hair regions ([4]; HGI assessment, listed as ZT): significant increase; also recorded: highly significant increased number | HGI raw score % A (absent) after ([4]; assessor A#1, listed as ZT): 50% (3×) and 40% (4×) and 15% and 20% (2×) | HGI raw score % I (intermediate) after ([4]; assessor A#1, listed as ZT): 20% (2×) and 15% and 10% (2×) and 25% (5×) | HGI raw score % T (terminal) after ([4]; assessor A#1, listed as ZT): 20% (2×) and 30% (3×) and 15% and 10% (2×) and 55% and 60% | HGI raw score % V (vellus) after ([4]; assessor A#1, listed as ZT): 10% (3×) and 20% (2×) and 25% (3×) and 15% and 5% | HGI raw score % A (absent) after ([4]; assessor A#2, listed as ZT): 20% and 30% (3×) and 10% (3×) and 40% (2×) and 50% | HGI raw score % I (intermediate) after ([4]; assessor A#2, listed as ZT): 30% (6×) and 20% (4×) | HGI raw score % T (terminal) after ([4]; assessor A#2, listed as ZT): 20% (4×) and 30% (2×) and 40% and 10% (2×) and 60% | HGI raw score % V (vellus) after ([4]; assessor A#2, listed as ZT): 30% (3×) and 20% (3×) and 0% and 40% and 10% (2×) | Melanogenesis ([4]; higher magnification images, several (older) subjects, listed as ZT): Melanogenesis was observed in several subjects; also recorded: clearly observed | additional developing vellus hairs revealed by spectroscopy [5]: 59 | activation of inactive hair follicles [6]: effective | Percentage increase in active hair follicles, Average increase [7, 9]: 80% | Percentage increase in active hair follicles, Range [7, 9]: 6-200% | Number of active hair follicles after treatment per cm^2 ([7]; subject 1 (areas a, b), 16 weeks, spray with LKKTETQ peptide): 21 per cm^2 and 24 per cm^2 | Number of active hair follicles after treatment ([7]; subject 1 (areas a, b), 16 weeks, twice daily topical 0.0005% spray also containing 0.00005% LKKTETQ peptide): 36 and 48 | Number of active hair follicles after treatment per cm^2 [7, 10]: 38 per cm^2 | Percentage increase in active hair follicles [7, 10]: 135% | Number of active hair follicles after treatment ([7]; subject 4, 12 weeks, twice daily topical 0.0005% spray without LKKTETQ peptide): 40

pyrGlu-Ala-Lys-Ser-Gln-Gly-Gly-Ser-Asn ([pGlu]AKSQGGSN) [thymulin, nonapeptide produced by the thymus gland, CAS 63958-90-7, reference compound]
hair shaft formation [8]: inhibit hair shaft formation | activation of inactive hair follicles [6]: does not significantly activate inactive hair follicles
